#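 Growth conditions: 96-well plates. Treatment: test compound, 48 hours, 5 concentrations. Analysis: linear interpolation between bracketing concentrations; unreached endpoints set to highest concentration. GI50 is the concentration that inhibits growth by half.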 Activity calls are given as the source filed them. No stated cut-off is given here; in the data, active = GI50 up to about 1.1 µM and inactive = higher.
# Legend:
# Test in all cases: growth of human tumour cells (NCI), 48 h
# 786-0 = test system: 786-0
# A498 = test system: A498
# A549 = test system: A549
# ACHN = test system: ACHN
# BT-549 = test system: BT-549
# CAKI-1 = test system: CAKI-1
# CCRF-CEM = test system: CCRF-CEM
# COLO 205 = test system: COLO 205
# DU-145 = test system: DU-145
# EKVX = test system: EKVX
# HCT-116 = test system: HCT-116
# HCT-15 = test system: HCT-15
# HL-60 = test system: HL-60
# HOP-62 = test system: HOP-62
# HOP-92 = test system: HOP-92
# HT-29 = test system: HT-29
# Hs-578T = test system: Hs-578T
# IGROV-1 = test system: IGROV-1
# KM12 = test system: KM12
# LOX IMVI = test system: LOX IMVI
# M14 = test system: M14
# MCF7 = test system: MCF7
# MDA-MB-435 = test system: MDA-MB-435
# MDA-N = test system: MDA-N
# Malme-3M = test system: Malme-3M
# NCI-H226 = test system: NCI-H226
# NCI-H23 = test system: NCI-H23
# NCI-H460 = test system: NCI-H460
# NCI-H522 = test system: NCI-H522
# NCI/ADR-RES = test system: NCI/ADR-RES
# OVCAR-3 = test system: OVCAR-3
# OVCAR-4 = test system: OVCAR-4
# OVCAR-5 = test system: OVCAR-5
# OVCAR-8 = test system: OVCAR-8
# RPMI-8226 = test system: RPMI-8226
# RXF 393 = test system: RXF 393
# SF-268 = test system: SF-268
# SF-295 = test system: SF-295
# SF-539 = test system: SF-539
# SK-MEL-28 = test system: SK-MEL-28
# SK-MEL-5 = test system: SK-MEL-5
# SK-OV-3 = test system: SK-OV-3
# SN12C = test system: SN12C
# SNB-19 = test system: SNB-19
# SNB-75 = test system: SNB-75
# SR = test system: SR
# SW-620 = test system: SW-620
# TK-10 = test system: TK-10
# UACC-257 = test system: UACC-257
# UACC-62 = test system: UACC-62
# UO-31 = test system: UO-31
# HCC 2998 = test system: HCC 2998
# K562 = test system: K562
# MOLT-4 = test system: MOLT-4
# PC-3 = test system: PC-3
# U-251 = test system: U-251
# MDA-MB-231 = test system: MDA-MB-231
# SK-MEL-2 = test system: SK-MEL-2
smiles,measurement,setting,value
CCOC(=O)/C(=C\NC(C)(C)C)c1nc2ccccc2o1,GI50,786-0,24.6 µM (inactive)
same,GI50,A498,27.9 µM (inactive)
same,GI50,A549,42.4 µM (inactive)
same,GI50,ACHN,27.6 µM (inactive)
same,GI50,BT-549,26.7 µM (inactive)
same,GI50,CAKI-1,60.4 µM (inactive)
same,GI50,CCRF-CEM,16.3 µM (inactive)
same,GI50,COLO 205,21.3 µM (inactive)
same,GI50,DU-145,43.4 µM (inactive)
same,GI50,EKVX,> 100 µM (inactive)
same,GI50,HCT-116,37.3 µM (inactive)
same,GI50,HCT-15,36.6 µM
same,GI50,HL-60,2.42 µM (inactive)
same,GI50,HOP-62,> 100 µM (inactive)
same,GI50,HOP-92,33.5 µM (inactive)
same,GI50,HT-29,27.7 µM (inactive)
same,GI50,Hs-578T,28.3 µM (inactive)
same,GI50,IGROV-1,51.9 µM (inactive)
same,GI50,KM12,33.3 µM (inactive)
same,GI50,LOX IMVI,27.4 µM (inactive)
same,GI50,M14,48 µM (inactive)
same,GI50,MCF7,29.3 µM (inactive)
same,GI50,MDA-MB-435,33.3 µM (inactive)
same,GI50,MDA-N,32 µM (inactive)
same,GI50,Malme-3M,35.7 µM (inactive)
same,GI50,NCI-H226,20.9 µM (inactive)
same,GI50,NCI-H23,34.9 µM (inactive)
same,GI50,NCI-H460,25.7 µM (inactive)
same,GI50,NCI-H522,29.6 µM (inactive)
same,GI50,NCI/ADR-RES,35.6 µM (inactive)
same,GI50,OVCAR-3,35.4 µM (inactive)
same,GI50,OVCAR-4,31.4 µM (inactive)
same,GI50,OVCAR-5,60 µM (inactive)
same,GI50,OVCAR-8,39 µM (inactive)
same,GI50,RPMI-8226,22.2 µM (inactive)
same,GI50,RXF 393,24.7 µM (inactive)
same,GI50,SF-268,37.8 µM (inactive)
same,GI50,SF-295,34 µM (inactive)
same,GI50,SF-539,47.4 µM (inactive)
same,GI50,SK-MEL-28,36.5 µM (inactive)
same,GI50,SK-MEL-5,12.8 µM (inactive)
same,GI50,SK-OV-3,92 µM (inactive)
same,GI50,SN12C,50.1 µM (inactive)
same,GI50,SNB-19,64 µM (inactive)
same,GI50,SNB-75,31.9 µM (inactive)
same,GI50,SR,25.6 µM (inactive)
same,GI50,SW-620,49.7 µM (inactive)
same,GI50,TK-10,27.2 µM (inactive)
same,GI50,UACC-257,20.1 µM (inactive)
same,GI50,UACC-62,18.4 µM (inactive)
same,GI50,UO-31,0.124 µM (active)
Cc1nn(C)c2c1C(=O)N(C)CC(=O)N2C,GI50,786-0,> 100 µM (inactive)
same,GI50,A498,> 100 µM (inactive)
same,GI50,A549,> 100 µM (inactive)
same,GI50,ACHN,> 100 µM (inactive)
same,GI50,BT-549,> 100 µM (inactive)
same,GI50,CAKI-1,> 100 µM (inactive)
same,GI50,CCRF-CEM,> 100 µM (inactive)
same,GI50,COLO 205,> 100 µM (inactive)
same,GI50,DU-145,> 100 µM (inactive)
same,GI50,EKVX,> 100 µM (inactive)
same,GI50,HCC 2998,> 100 µM (inactive)
same,GI50,HCT-116,> 100 µM (inactive)
same,GI50,HCT-15,69.7 µM
same,GI50,HL-60,> 100 µM (inactive)
same,GI50,HOP-62,> 100 µM (inactive)
same,GI50,HOP-92,> 100 µM (inactive)
same,GI50,HT-29,> 100 µM (inactive)
same,GI50,Hs-578T,> 100 µM (inactive)
same,GI50,IGROV-1,> 100 µM (inactive)
same,GI50,K562,> 100 µM (inactive)
same,GI50,KM12,> 100 µM (inactive)
same,GI50,M14,> 100 µM (inactive)
same,GI50,MCF7,> 100 µM (inactive)
same,GI50,MDA-MB-435,> 100 µM (inactive)
same,GI50,MDA-N,> 100 µM (inactive)
same,GI50,MOLT-4,> 100 µM (inactive)
same,GI50,Malme-3M,> 100 µM (inactive)
same,GI50,NCI-H23,> 100 µM (inactive)
same,GI50,NCI-H460,> 100 µM (inactive)
same,GI50,NCI-H522,> 100 µM (inactive)
same,GI50,OVCAR-3,> 100 µM (inactive)
same,GI50,OVCAR-4,> 100 µM (inactive)
same,GI50,OVCAR-5,> 100 µM (inactive)
same,GI50,OVCAR-8,> 100 µM (inactive)
same,GI50,PC-3,> 100 µM (inactive)
same,GI50,RPMI-8226,> 100 µM (inactive)
same,GI50,RXF 393,> 100 µM (inactive)
same,GI50,SF-268,> 100 µM (inactive)
same,GI50,SF-295,> 100 µM (inactive)
same,GI50,SF-539,> 100 µM (inactive)
same,GI50,SK-MEL-28,> 100 µM (inactive)
same,GI50,SK-MEL-5,> 100 µM (inactive)
same,GI50,SK-OV-3,> 100 µM (inactive)
same,GI50,SN12C,> 100 µM (inactive)
same,GI50,SNB-19,> 100 µM (inactive)
same,GI50,SNB-75,> 100 µM (inactive)
same,GI50,SR,> 100 µM (inactive)
same,GI50,SW-620,> 100 µM (inactive)
same,GI50,TK-10,> 100 µM (inactive)
same,GI50,U-251,> 100 µM (inactive)
same,GI50,UACC-257,> 100 µM (inactive)
same,GI50,UACC-62,> 100 µM (inactive)
same,GI50,UO-31,> 100 µM (inactive)
NC(=O)Nc1c(Cl)cc(S(N)(=O)=O)cc1Cl,GI50,786-0,> 100 µM (inactive)
same,GI50,A549,> 100 µM (inactive)
same,GI50,BT-549,> 100 µM (inactive)
same,GI50,CAKI-1,> 100 µM (inactive)
same,GI50,CCRF-CEM,> 100 µM (inactive)
same,GI50,COLO 205,> 100 µM (inactive)
same,GI50,DU-145,> 100 µM (inactive)
same,GI50,EKVX,> 100 µM (inactive)
same,GI50,HCT-116,> 100 µM (inactive)
same,GI50,HCT-15,> 100 µM
same,GI50,HL-60,> 100 µM (inactive)
same,GI50,HOP-62,> 100 µM (inactive)
same,GI50,HOP-92,> 100 µM (inactive)
same,GI50,HT-29,> 100 µM (inactive)
same,GI50,Hs-578T,> 100 µM (inactive)
same,GI50,IGROV-1,> 100 µM (inactive)
same,GI50,K562,> 100 µM (inactive)
same,GI50,KM12,> 100 µM (inactive)
same,GI50,LOX IMVI,> 100 µM (inactive)
same,GI50,M14,> 100 µM (inactive)
same,GI50,MCF7,> 100 µM (inactive)
same,GI50,MDA-MB-231,> 100 µM (inactive)
same,GI50,MDA-MB-435,> 100 µM (inactive)
same,GI50,MDA-N,> 100 µM (inactive)
same,GI50,MOLT-4,> 100 µM (inactive)
same,GI50,Malme-3M,> 100 µM (inactive)
same,GI50,NCI-H226,> 100 µM (inactive)
same,GI50,NCI-H23,> 100 µM (inactive)
same,GI50,NCI-H522,> 100 µM (inactive)
same,GI50,NCI/ADR-RES,> 100 µM (inactive)
same,GI50,OVCAR-3,> 100 µM (inactive)
same,GI50,OVCAR-4,> 100 µM (inactive)
same,GI50,OVCAR-5,> 100 µM (inactive)
same,GI50,OVCAR-8,> 100 µM (inactive)
same,GI50,RPMI-8226,> 100 µM (inactive)
same,GI50,RXF 393,> 100 µM (inactive)
same,GI50,SF-268,> 100 µM (inactive)
same,GI50,SF-295,> 100 µM (inactive)
same,GI50,SF-539,> 100 µM (inactive)
same,GI50,SK-MEL-28,> 100 µM (inactive)
same,GI50,SK-MEL-2,> 100 µM (inactive)
same,GI50,SK-MEL-5,> 100 µM (inactive)
same,GI50,SK-OV-3,> 100 µM (inactive)
same,GI50,SN12C,> 100 µM (inactive)
same,GI50,SNB-19,> 100 µM (inactive)
same,GI50,SNB-75,> 100 µM (inactive)
same,GI50,SW-620,> 100 µM (inactive)
same,GI50,TK-10,> 100 µM (inactive)
same,GI50,U-251,> 100 µM (inactive)
same,GI50,UACC-257,> 100 µM (inactive)
same,GI50,UACC-62,> 100 µM (inactive)
same,GI50,UO-31,> 100 µM (inactive)
COc1ccc(CNc2nc3cc(N)cc(N)c3nc2-c2ccccc2)cc1,GI50,RPMI-8226,4.13 µM (inactive)

# From ChEMBL document CHEMBL1201862, “PubChem BioAssay data set” (2004)
